Results published in US20230233569A1 (Revolution Medicines, Inc., priority 2020, published 2023).
“And” between values parts separate entries of the source, which are not always exact repeats. Equal values may be shown once. Read-outs that look alike come from different tables or passages of the source.

Tests used:
KRAS G12D = KRAS G12D (Homo sapiens, UniProt P01116+P62937, G12D); assay: Disruption of BRAF RBD interaction with Ras (FRET / MOA assay, with Cyclophilin A); type: biochemical
Outline: (§1)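 Compound-driven ternary complex formation between nucleotide-loaded K-Ras and Cyclophilin A was measured as loss of BRAF RBD binding. Compounds (10-point 3-fold series, top 30 μM final) were incubated 3 h at 25 °C, then anti-His Eu-W1024 (10 nM) and anti-GST allophycocyanin (50 nM) added for 1.5 h. IC50 was taken from the TR-FRET ratio decrease versus DMSO.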

KRAS G13C = KRAS G13C (Homo sapiens, UniProt P01116+P62937, G13C); assay: as above; type: biochemical
Sequence of KRAS G13C (P01116 1-169 isoform P01116-2 G13C): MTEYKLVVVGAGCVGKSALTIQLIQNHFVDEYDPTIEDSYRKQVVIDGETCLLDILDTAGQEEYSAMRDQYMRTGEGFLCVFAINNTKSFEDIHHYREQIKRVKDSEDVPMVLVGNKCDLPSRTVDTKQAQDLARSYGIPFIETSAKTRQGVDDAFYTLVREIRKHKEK
Sequence of KRAS G13C (P62937 whole entry): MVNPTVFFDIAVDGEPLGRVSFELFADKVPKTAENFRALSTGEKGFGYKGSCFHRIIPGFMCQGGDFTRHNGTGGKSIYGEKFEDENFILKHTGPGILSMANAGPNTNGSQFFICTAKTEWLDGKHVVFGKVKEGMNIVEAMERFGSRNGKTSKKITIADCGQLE
Outline: as §1

KRAS G12C = KRAS G12C (Homo sapiens, UniProt P01116+P62937, G12C); assay: as above; type: biochemical
Sequence of KRAS G12C (P01116 1-169 isoform P01116-2 G12C): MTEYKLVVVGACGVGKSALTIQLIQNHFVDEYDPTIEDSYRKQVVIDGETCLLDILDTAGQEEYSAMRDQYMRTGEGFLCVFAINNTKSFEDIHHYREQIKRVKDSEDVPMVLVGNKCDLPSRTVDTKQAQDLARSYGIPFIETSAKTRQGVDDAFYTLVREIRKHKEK
Sequence of KRAS G12C (P62937 whole entry): as the sequence (P62937 whole entry) above
Outline: as §1

KRAS G12V = KRAS G12V (Homo sapiens, UniProt P01116+P62937, G12V); assay: as above; type: biochemical
Sequence of KRAS G12V (P01116 1-169 isoform P01116-2 G12V limits assumed): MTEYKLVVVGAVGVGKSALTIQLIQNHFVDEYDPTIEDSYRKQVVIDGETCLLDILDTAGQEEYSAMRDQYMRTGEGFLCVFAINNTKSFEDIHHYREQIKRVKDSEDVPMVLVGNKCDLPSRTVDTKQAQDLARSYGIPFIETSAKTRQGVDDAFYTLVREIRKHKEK
Sequence of KRAS G12V (P62937 whole entry): as the sequence (P62937 whole entry) above
Outline: as §1

NRAS G12C = NRAS G12C (Homo sapiens, UniProt P01111+P62937, G12C); assay: as above; type: biochemical
Sequence of NRAS G12C (P01111 whole entry G12C): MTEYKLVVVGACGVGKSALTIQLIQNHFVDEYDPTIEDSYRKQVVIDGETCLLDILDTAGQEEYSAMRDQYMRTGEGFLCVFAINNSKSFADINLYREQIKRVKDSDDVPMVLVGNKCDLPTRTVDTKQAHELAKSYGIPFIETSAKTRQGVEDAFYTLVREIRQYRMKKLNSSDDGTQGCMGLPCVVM
Sequence of NRAS G12C (P62937 whole entry): as the sequence (P62937 whole entry) above

KRAS G13D = KRAS G13D (Homo sapiens, UniProt P01116+P62937, G13D); assay: as above; type: biochemical
Sequence of KRAS G13D (P01116 1-169 isoform P01116-2 G13D limits assumed): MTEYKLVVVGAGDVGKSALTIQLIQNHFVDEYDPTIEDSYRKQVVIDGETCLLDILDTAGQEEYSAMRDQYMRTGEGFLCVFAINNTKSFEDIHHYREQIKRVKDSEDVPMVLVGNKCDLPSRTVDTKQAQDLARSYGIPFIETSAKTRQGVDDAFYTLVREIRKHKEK
Sequence of KRAS G13D (P62937 whole entry): as the sequence (P62937 whole entry) above
Outline: as §1

KRAS G12S = KRAS G12S (Homo sapiens, UniProt P01116+P62937, G12S); assay: as above; type: biochemical
Sequence of KRAS G12S (P01116 1-169 isoform P01116-2 G12S limits assumed): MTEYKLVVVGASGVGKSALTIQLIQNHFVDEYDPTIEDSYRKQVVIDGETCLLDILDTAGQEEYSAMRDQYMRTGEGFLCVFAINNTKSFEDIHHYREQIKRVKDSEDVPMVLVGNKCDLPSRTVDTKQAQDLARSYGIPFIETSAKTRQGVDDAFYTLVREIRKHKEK
Sequence of KRAS G12S (P62937 whole entry): as the sequence (P62937 whole entry) above
Outline: as §1

KRAS WT = KRAS WT (Homo sapiens, UniProt P01116+P62937); assay: as above; type: biochemical
Sequence of KRAS WT (P01116 1-169 isoform P01116-2 limits assumed): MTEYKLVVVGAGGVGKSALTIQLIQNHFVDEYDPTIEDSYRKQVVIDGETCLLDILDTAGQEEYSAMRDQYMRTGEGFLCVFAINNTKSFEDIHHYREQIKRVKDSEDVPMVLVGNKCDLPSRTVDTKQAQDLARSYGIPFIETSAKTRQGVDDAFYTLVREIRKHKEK
Sequence of KRAS WT (P62937 whole entry): as the sequence (P62937 whole entry) above
Outline: as §1

NCI-H358 (K-Ras G12C) = assay: CellTiter-Glo cell viability assay, 5-day treatment; type: cell-based; settings: Homo sapiens, NCI-H358, H358, K-Ras G12C; read-out: Additional H358 Cell Viability assay data (K-Ras G12C, IC50)
Outline: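 Luminescence read-out after 5 days of compound exposure, with plates first brought to room temperature for roughly 30 minutes. Values are percent of averaged DMSO wells, fitted by four-parameter logistic regression.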

[1] = KRAS G12C FRET data IC50, KRAS G12C
[2] = KRAS G12V FRET data IC50, KRAS G12V
[3] = NRAS G12C FRET data IC50, NRAS G12C
[4] = KRAS G13D FRET data IC50, KRAS G13D
[5] = KRAS WT FRET data IC50, KRAS WT
[6] = read-out: KRAS G12D FRET data, IC50
[7] = KRAS G13C, read-out: KRAS G13C FRET data IC50
[8] = KRAS G12C, read-out: KRAS G12C FRET data IC50
[9] = KRAS G12V, read-out: KRAS G12V FRET data IC50
[10] = NRAS G12C, read-out: NRAS G12C FRET data IC50
[11] = KRAS G13D, read-out: KRAS G13D FRET data IC50
[12] = read-out: KRAS G12S FRET data, IC50
[13] = KRAS WT, read-out: KRAS WT FRET data IC50

Sequence of KRAS G12D (P01116 1-169 isoform P01116-2 G12D limits assumed): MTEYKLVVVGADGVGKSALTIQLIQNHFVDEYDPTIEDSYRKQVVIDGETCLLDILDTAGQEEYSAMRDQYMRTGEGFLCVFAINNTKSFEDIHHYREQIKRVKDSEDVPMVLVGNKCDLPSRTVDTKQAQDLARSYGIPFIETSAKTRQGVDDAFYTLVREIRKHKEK
Sequence of KRAS G12D (P62937 whole entry): as the sequence (P62937 whole entry) above

IC50 (KRAS G12D; KRAS G12D FRET data, IC50) [nM]	IC50 (KRAS G13C; KRAS G13C FRET data IC50, KRAS G13C) [nM]	IC50 (NCI-H358 (K-Ras G12C)) [nM]	IC50 (KRAS G12D; [6])	IC50 (KRAS G13C; [7])	IC50 (KRAS G12C; [8])	IC50 (KRAS G12V; [9])	IC50 (NRAS G12C; [10])	IC50 (KRAS G13D; [11]) [nM]	IC50 (KRAS G12S; [12])	IC50 (KRAS WT; [13]) [nM]	Structure (SMILES)	IC50 (KRAS G12C; [1])	IC50 (KRAS G12V; [2]) [nM]	IC50 (NRAS G12C; [3])	IC50 (KRAS G13D; [4])	IC50 (KRAS G12S; KRAS G12S FRET data, IC50) [nM]	IC50 (KRAS WT; [5]) [nM]
100 to 1000	10 to 100	< 10	–	–	–	–	–	–	–	–	C=CC(=O)N1CCO[C@@]2(CCN(C(=O)N(C)[C@H](C(=O)N[C@H]3Cc4nc(cs4)-c4ccc5c(c4)c(c(-c4cccnc4[C@H](C)OC)n5CC(F)(F)F)CC(C)(C)COC(=O)C4CCCN(N4)C3=O)C(C)C)C2)C1 (stereo partly shown) [Example A594]	10 to 100 nM	100 to 1000	10 to 100 nM	100 to 1000 nM	100 to 1000	10 to 100
–	–	10 to 100	> 10000 nM	1000 to 10000 nM	100 to 1000 nM	1000 to 10000 nM	100 to 1000 nM	> 10000	1000 to 10000 nM	> 10000	CCn1c(-c2cccnc2[C@H](C)OC)c2c3cc(ccc31)-c1cccc(c1)C[C@H](NC(=O)[C@H](C(C)C)N1CC[C@]3(CCN(C(=O)C#C[C@@H]4COCCN4C4COC4)C3)C1=O)C(=O)N1CCC[C@H](N1)C(=O)OCC(C)(C)C2 [Example A565]	–	–	–	–	–	–
–	–	< 10	–	–	10 to 100 nM	–	10 to 100 nM	100 to 1000	–	–	C=CC(=O)N(C)C1CCN(C(=O)N(C)[C@H](C(=O)N[C@H]2Cc3nc(cs3)-c3ccc4c(c3)c(c(-c3cccnc3[C@H](C)OC)n4CC)CC(C)(C)COC(=O)[C@@H]3CCCN(N3)C2=O)C(C)C)C1 (stereo partly shown) [Example A384]	–	–	–	–	–	–
–	–	< 10	> 10000 nM	1000 to 10000 nM	< 10 nM	1000 to 10000 nM	< 10 nM	> 10000	1000 to 10000 nM	1000 to 10000	CCn1c(-c2cccnc2[C@H](C)OC)c2c3cc(ccc31)-c1csc(n1)C[C@H](NC(=O)[C@H](COC1CN(C(=O)C#CC(C)(C)N(C)C)C1)OC)C(=O)N1CCC[C@H](N1)C(=O)OCC(C)(C)C2 (atropisomer, axis not shown) [Example A705]	–	–	–	–	–	–
–	–	10 to 100	100 to 1000 nM	100 to 1000 nM	10 to 100 nM	100 to 1000 nM	10 to 100 nM	100 to 1000	100 to 1000 nM	100 to 1000	C=CC(=O)N1CC[C@@H](N(C)C(=O)N(C)[C@H](C(=O)N[C@H]2Cc3nc(cs3)-c3ccc4c(c3)c(c(-c3cccnc3[C@H](C)OC)n4CC)CC(C)(C)COC(=O)[C@@H]3CCCN(N3)C2=O)C(C)C)C1 [Example A349]	–	–	–	–	–	–
–	–	10 to 100	100 to 1000 nM	10 to 100 nM	10 to 100 nM	100 to 1000 nM	10 to 100 nM	100 to 1000	100 to 1000 nM	10 to 100	C=CC(=O)N1CCC2(C1)CN(C(=O)N(C)[C@H](C(=O)N[C@H]1Cc3nc(cs3)-c3ccc4c(c3)c(c(-c3cccnc3[C@H](C)OC)n4CC(F)(F)F)CC(C)(C)COC(=O)C3CCCN(N3)C1=O)C(C)C)C2 (stereo partly shown) [Example A603]	–	–	–	–	–	–
–	–	10 to 100	100 to 1000 nM	10 to 100 nM	100 to 1000 nM	100 to 1000 nM	100 to 1000 nM	100 to 1000	100 to 1000 nM	10 to 100	C=CC(=O)N1CCOC2(CCN(C(=O)N(C)[C@H](C(=O)N[C@H]3Cc4cc(CF)cc(c4)-c4ccc5c(c4)c(c(-c4cccnc4[C@H](C)OC)n5CC(F)(F)F)CC(C)(C)COC(=O)C4CCCN(N4)C3=O)C(C)C)CC2)C1 (stereo partly shown) [Example A605]	–	–	–	–	–	–
–	–	100 to 1000	1000 to 10000 nM	10 to 100 nM	100 to 1000 nM	100 to 1000 nM	100 to 1000 nM	100 to 1000	100 to 1000 nM	100 to 1000	C=CC(=O)N1CCOC2(CCN(C(=O)N(C)[C@H](C(=O)N[C@H]3Cc4nc(n(C)n4)-c4ccc5c(c4)c(c(-c4cccnc4[C@H](C)OC)n5CC(F)(F)F)CC(C)(C)COC(=O)C4CCCN(N4)C3=O)C(C)C)CC2)C1 (stereo partly shown) [Example A606]	–	–	–	–	–	–

Continued, molecule first:

Structure (SMILES)	IC50 (KRAS G12D; KRAS G12D FRET data, IC50) [nM]	IC50 (KRAS G13C; KRAS G13C FRET data IC50, KRAS G13C) [nM]	IC50 (NCI-H358 (K-Ras G12C)) [nM]	IC50 (KRAS G12D; [6])	IC50 (KRAS G13C; [7])	IC50 (KRAS G12C; [8])	IC50 (KRAS G12V; [9])	IC50 (NRAS G12C; [10])	IC50 (KRAS G13D; [11]) [nM]	IC50 (KRAS G12S; [12])	IC50 (KRAS WT; [13]) [nM]	IC50 (KRAS G12C; [1])	IC50 (KRAS G12V; [2]) [nM]	IC50 (NRAS G12C; [3])	IC50 (KRAS G13D; [4])	IC50 (KRAS G12S; KRAS G12S FRET data, IC50) [nM]	IC50 (KRAS WT; [5]) [nM]
CO[C@@H](COC1CN(C(=O)C#CC(C)(C)N(C)C)C1)C(=O)N[C@H]1Cc2cccc(c2)-c2ccc3c(c2)c(c(-c2cccnc2[C@H](C)OC)n3CC(F)(F)F)CC(C)(C)COC(=O)[C@@H]2CCCN(N2)C1=O [Example A556]	–	–	< 10	> 10000 nM	1000 to 10000 nM	< 10 nM	1000 to 10000 nM	< 10 nM	> 10000	> 10000 nM	1000 to 10000	–	–	–	–	–	–
C=CC(=O)N1CC[C@H](C(=O)N(C)[C@H](C(=O)N[C@H]2Cc3cc(O)cc(c3)-c3ccc4c(c3)c(c(-c3cc(C)cnc3[C@H](C)OC)n4CC)CC(C)(C)COC(=O)[C@@H]3CCCN(N3)C2=O)C(C)C)C1 [Example A167]	–	–	10 to 100	> 10000 nM and 100 to 1000 nM	1000 to 10000 nM and 10 to 100 nM	–	1000 to 10000 nM	–	–	1000 to 10000 nM	1000 to 10000	100 to 1000 nM and < 10 nM	10 to 100	100 to 1000 nM and < 10 nM	100 to 1000 nM and > 10000 nM	10 to 100	10 to 100
CCn1c(-c2cccnc2[C@H](C)OC)c2c3cc(ccc31)-c1csc(n1)C[C@H](NC(=O)[C@H](C(C)C)N(C)C(=O)N(C)C1CN(C(=O)/C=C/C(C)(C)O)C1)C(=O)N1CCC[C@H](N1)C(=O)OCC(C)(C)C2 (atropisomer, axis not shown) [Example A350]	–	–	100 to 1000	1000 to 10000 nM	100 to 1000 nM	10 to 100 nM	100 to 1000 nM	10 to 100 nM	100 to 1000	100 to 1000 nM	100 to 1000	–	–	–	–	–	–
CC#CC(=O)N1CC[C@H](C(=O)N(C)[C@H](C(=O)N[C@H]2Cc3nc(cs3)-c3ccc4c(c3)c(c(-c3cccnc3[C@H](C)OC)n4CC)CC(C)(C)COC(=O)[C@@H]3CCCN(N3)C2=O)C(C)C)C1 [Example A168]	–	–	10 to 100	> 10000 nM	1000 to 10000 nM	100 to 1000 nM	1000 to 10000 nM	1000 to 10000 nM	> 10000	1000 to 10000 nM	1000 to 10000	–	–	–	–	–	–
CCn1c(-c2cccnc2[C@H](C)OC)c2c3cc(ccc31)-c1cccc(c1)C[C@H](NC(=O)[C@H](C(C)C)N1CC[C@]3(CCN(C(=O)C#C[C@]4(N(C)C)CCOC4)C3)C1=O)C(=O)N1CCC[C@H](N1)C(=O)OCC(C)(C)C2 [Example A559]	–	–	< 10	1000 to 10000 nM	100 to 1000 nM	10 to 100 nM	1000 to 10000 nM	10 to 100 nM	1000 to 10000	1000 to 10000 nM	1000 to 10000	–	–	–	–	–	–
CCn1c(-c2cccnc2[C@H](C)OC)c2c3cc(ccc31)N1CCO[C@@H](C[C@H](NC(=O)[C@H](C(C)C)N(C)C(=O)[C@@]3(F)CCN(C(=O)C#CC(C)(C)N4CCC4)C3)C(=O)N3CCC[C@H](N3)C(=O)OCC(C)(C)C2)C1 [Example A726]	–	–	< 10	> 10000 nM	100 to 1000 nM	–	1000 to 10000 nM	10 to 100 nM	–	1000 to 10000 nM	1000 to 10000	–	–	–	–	–	–
C=CC(=O)N1CC[C@H](C(=O)N(C)[C@H](C(=O)N[C@H]2Cc3cc(O)cc(c3)-c3cnc4c(c3)c(c(-c3ccccc3CCOC)n4CC)CC(C)(C)COC(=O)[C@@H]3CCCN(N3)C2=O)C(C)C)C1 [Example A210]	–	–	–	> 10000 nM	> 10000 nM	100 nM to 1 µM and 1 µM to 10 µM and > 10 µM (2×)	1 µM to 10 µM and > 10 µM (3×)	100 nM to 1 µM and 1 µM to 10 µM and > 10 µM (2×)	> 10000	1 µM to 10 µM and > 10 µM (3×)	> 10000	–	–	–	–	–	–
